According to PubChem BioAssay AID2060893 (Molecular Pharmacology Branch, DTP, NCI, 2025):

Test system: K86415-001-R-J1-PDC complex spheroids, viability
Experiment: Anticancer human tumor K86415-001-R-J1-PDC patient-derived lung adenocarcinoma cell line growth inhibition [RAS]
Conditions: for IC50: curve of first compound; for viability, T/C: stronger effect = lower value
How it was run: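 Multi-cell-type spheroids: tumor cells plus HUVEC endothelial cells and mesenchymal stem cells. RAS-pathway inhibitors were combined with targeted agents, each dosed in half-log steps down from clinical Cmax, or from 10 microM when Cmax was unknown.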

[1] = second compound 0.00316 µM, first compound 0.000949 µM
[2] = second compound 0.00316 µM, first compound 0.003 µM
[3] = second compound 0.00316 µM, first compound 0.00949 µM
[4] = second compound 0.00316 µM, first compound 0.03 µM
[5] = second compound 0.00316 µM, first compound 0.0949 µM
[6] = second compound 0.00316 µM, first compound 0.3 µM
[7] = second compound 0.01 µM, first compound 0.000949 µM
[8] = second compound 0.01 µM, first compound 0.003 µM
[9] = second compound 0.01 µM, first compound 0.00949 µM
[10] = second compound 0.01 µM, first compound 0.03 µM
[11] = second compound 0.01 µM, first compound 0.0949 µM
[12] = second compound 0.01 µM, first compound 0.3 µM
[13] = second compound 0.0316 µM, first compound 0.000949 µM
[14] = second compound 0.0316 µM, first compound 0.003 µM
[15] = second compound 0.0316 µM, first compound 0.00949 µM
[16] = second compound 0.0316 µM, first compound 0.03 µM
[17] = second compound 0.0316 µM, first compound 0.0949 µM
[18] = second compound 0.0316 µM, first compound 0.3 µM
[19] = second compound 0.1 µM, first compound 0.000949 µM
[20] = second compound 0.1 µM, first compound 0.003 µM
[21] = second compound 0.1 µM, first compound 0.00949 µM
[22] = second compound 0.1 µM, first compound 0.03 µM
[23] = second compound 0.1 µM, first compound 0.0949 µM
[24] = second compound 0.1 µM, first compound 0.3 µM
[25] = second compound 0.316 µM, first compound 0.000949 µM
[26] = second compound 0.316 µM, first compound 0.003 µM
[27] = second compound 0.316 µM, first compound 0.00949 µM
[28] = second compound 0.316 µM, first compound 0.03 µM
[29] = second compound 0.316 µM, first compound 0.0949 µM
[30] = second compound 0.316 µM, first compound 0.3 µM
[31] = second compound 1 µM, first compound 0.000949 µM
[32] = second compound 1 µM, first compound 0.003 µM
[33] = second compound 1 µM, first compound 0.00949 µM
[34] = second compound 1 µM, first compound 0.03 µM
[35] = second compound 1 µM, first compound 0.0949 µM
[36] = second compound 1 µM, first compound 0.3 µM
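Note: spheroids exposed to agents for seven days before readout.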

For CC1(C)CCC(Nc2ncc(C(F)(F)F)c(-c3c[nH]c4c(P(C)(C)=O)c(C#N)ccc34)n2)CN1 (centres undefined) + C=CC(=O)N1CCN(c2nc(OCC3CCCN3C)nc3c(F)c(-c4nc(N)cc(C)c4C(F)(F)F)c(Cl)cc23)C(C)C1, the IC50 (second compound 0.00316 µM) was less than 0.949 nM, the IC50 (second compound 0.01 µM) was less than 0.949 nM and the IC50 (second compound 0.0316 µM) was less than 0.949 nM. For the same compound, the IC50 (second compound 0.1 µM) was less than 0.949 nM, the IC50 (second compound 0.316 µM) was less than 0.949 nM and the IC50 (second compound 1 µM) was less than 0.949 nM. It also gave a viability, T/C [1] of 18.3%, a viability, T/C [2] of 22.2% and a viability, T/C [3] of 18.7%. It also gave a viability, T/C [4] of 20.3%, a viability, T/C [5] of 22.7% and a viability, T/C [6] of 22.8%. It also gave a viability, T/C [7] of 15.2%, a viability, T/C [8] of 12.7% and a viability, T/C [9] of 16.9%. It also gave a viability, T/C [10] of 13.3%, a viability, T/C [11] of 15.5% and a viability, T/C [12] of 20.2%. It also gave a viability, T/C [13] of 12.8%, a viability, T/C [14] of 14% and a viability, T/C [15] of 12.7%. The viability, T/C [16] was 14.5%, the viability, T/C [17] was 15.6% and the viability, T/C [18] was 16.5%. For the same compound, the viability, T/C [19] was 11.2%, the viability, T/C [20] was 12.5% and the viability, T/C [21] was 12.7%. It also gave a viability, T/C [22] of 13.1%, a viability, T/C [23] of 13.9% and a viability, T/C [24] of 14.9%. For the same compound, the viability, T/C [25] was 9.63%, the viability, T/C [26] was 13.1% and the viability, T/C [27] was 12.1%. It also gave a viability, T/C [28] of 12.8%, a viability, T/C [29] of 13.8% and a viability, T/C [30] of 13.4%. For the same compound, the viability, T/C [31] was 10.9%, the viability, T/C [32] was 11.1% and the viability, T/C [33] was 13.6%. It also gave a viability, T/C [34] of 13.8%, a viability, T/C [35] of 15.9% and a viability, T/C [36] of 14.9%.

CCc1c2c(nc3ccc(O)cc13)-c1cc3c(c(=O)n1C2)COC(=O)[C@]3(O)CC + C=CC(=O)N1CCN(c2nc(OCC3CCCN3C)nc3c(F)c(-c4nc(N)cc(C)c4C(F)(F)F)c(Cl)cc23)C(C)C1 was tested, and the IC50 (second compound 0.00316 µM) was less than 0.949 nM, the IC50 (second compound 0.01 µM) was less than 0.949 nM and the IC50 (second compound 0.0316 µM) was less than 0.949 nM. It also gave an IC50 (second compound 0.1 µM) of less than 0.949 nM, an IC50 (second compound 0.316 µM) of less than 0.949 nM and an IC50 (second compound 1 µM) of less than 0.949 nM. For the same compound, the viability, T/C [1] was 19.9%, the viability, T/C [2] was 18.5% and the viability, T/C [3] was 14.5%. For the same compound, the viability, T/C [4] was 13.7%, the viability, T/C [5] was 8.97% and the viability, T/C [6] was 4.41%. The viability, T/C [7] was 11.6%, the viability, T/C [8] was 10.7% and the viability, T/C [9] was 11.3%. For the same compound, the viability, T/C [10] was 9.32%, the viability, T/C [11] was 8.86% and the viability, T/C [12] was 4.64%. It also gave a viability, T/C [13] of 10.1%, a viability, T/C [14] of 9.35% and a viability, T/C [15] of 8.29%. It also gave a viability, T/C [16] of 8.73%, a viability, T/C [17] of 8.33% and a viability, T/C [18] of 4.32%. It also gave a viability, T/C [19] of 8.25%, a viability, T/C [20] of 9.14% and a viability, T/C [21] of 10.9%. It also gave a viability, T/C [22] of 7.98%, a viability, T/C [23] of 6.67% and a viability, T/C [24] of 3.89%. The viability, T/C [25] was 10%, the viability, T/C [26] was 9.61% and the viability, T/C [27] was 9.94%. It also gave a viability, T/C [28] of 10.7%, a viability, T/C [29] of 7.22% and a viability, T/C [30] of 4.36%. The viability, T/C [31] was 9.61%, the viability, T/C [32] was 11% and the viability, T/C [33] was 8.27%. The viability, T/C [34] was 8.66%, the viability, T/C [35] was 6.75% and the viability, T/C [36] was 2.88%.
